The source made the active and inactive calls. How the calls were made is not given here.
Tested on: rodent carcinogenicity bioassays, tumor incidence
Experiment: CCRIS carcinogenicity studies
Summary of the method: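 NCI-built, expert-reviewed records of carcinogenicity and related test outcomes (mutagenicity, tumor promotion/inhibition) compiled from published and report sources, historical span 1985-2011, not updated.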

**Q.** With `CC1CN(N=O)CCO1` (stereo not drawn) as the compound, how does the carcinogen call (Species: HAMSTER, Strain/Sex: SYRIAN/MALE, Route: INTRAGASTRIC, Dose: 0, 27 MG/ML IN 0.2 ML STERILIZED WATER 1/WK FOR 30 WK (TOTAL DOSE 162 MG) (STUDY DURATION: LIFESPAN), Tumor Site: Type of Lesion: LIVER: HEMANGIOSARCOMA, NASAL CAVITY: CARCINOMA, LUNG: CARCINOMA, ADENOMA, FORESTOMACH: PAPILLOMA, TRACHEA: ADENOMA, Tumor Site: Type of Lesion: LIVER: HEMANGIOSARCOMA, NASAL CAVITY: CARCINOMA, LUNG: CARCINOMA, ADENOMA, FORESTOMACH: PAPILLOMA, TRACHEA: ADENOMA) read?
**A.** The carcinogen call was “active; positive”.

**Q.** Which results are given for `Cc1ccc(N=Nc2c(O)c(S(=O)(=O)O)cc3cc(S(=O)(=O)O)ccc23)c(C)c1`?
**A.** carcinogen call (Species: MOUSE, Route: ORAL, Tumor Site: Type of Lesion: LIVER): active; positive; carcinogen call (Species: RAT, Route: ORAL, Tumor Site: Type of Lesion: LIVER): active; positive

**Q.** How did the carcinogen call (Species: MOUSE, Strain/Sex: CD-1/MALE, Route: ORAL, Dose: 6000, 12000 PPM IN DIET, Tumor Site: Type of Lesion: BLOOD VESSELS) turn out when `Nc1c(Cl)cc(Cl)cc1Cl` was run?
**A.** The carcinogen call was “active; positive”.

**Q.** How did the carcinogen call (Species: RAT, Strain/Sex: SPRAGUE-DAWLEY/MALE, Route: ORAL, Dose: 0, 0.535% IN DIET FOR 117 WK, Tumor Site: Type of Lesion: KIDNEY) turn out when `Cc1cc(=O)n(-c2ccccc2)n1C` was run?
**A.** Its carcinogen call is “active; positive”.

**Q.** `Cc1cc(=O)oc2c1cc(C)c1occ(C)c12` was tested. Which carcinogen call (Species: MOUSE, Strain/Sex: C3H/HEN/FEMALE, Route: DERMAL, Dose: 0, 250 UG IN 70% ETHANOL 3/WK FOR 48 WK (STUDY DURATION: 68 WK)) did it give?
**A.** The carcinogen call was “inactive; negative”.

**Q.** Which results are given for `CCOS(=O)(=O)OCC`?
**A.** carcinogen call (Species: RAT, Route: ORAL, Tumor Site: Type of Lesion: FORESTOMACH): active; positive; carcinogen call (Species: RAT, Route: SUBCUTANEOUS, Tumor Site: Type of Lesion: INJECTION SITE): active; positive

**Q.** Which results are given for `CCN(CC)C(=O)Nc1ccc(OCC(O)CNC(C)(C)C)c(C(C)=O)c1` (stereo not drawn)?
**A.** carcinogen call (Species: MOUSE, Strain/Sex: CD-1/FEMALE, Route: ORAL, Dose: 0, 100, 300, 900 MG/KG IN DIET FOR DURATION OF STUDY (STUDY DURATION: 2 YR), Dose: 0, 100, 300, 900 MG/KG IN DIET FOR DURATION OF STUDY (STUDY DURATION: 2 YR)): inactive; negative; carcinogen call (Species: MOUSE, Strain/Sex: CD-1/MALE, Route: ORAL, Dose: 0, 100, 300, 900 MG/KG IN DIET FOR DURATION OF STUDY (STUDY DURATION: 2 YR), Dose: 0, 100, 300, 900 MG/KG IN DIET FOR DURATION OF STUDY (STUDY DURATION: 2 YR)): inactive; negative; carcinogen call (Species: RAT, Strain/Sex: SPRAGUE-DAWLEY/FEMALE, Route: ORAL, Dose: 0, 100, 300, 900 MG/KG IN DIET FOR 316 D THEN 0, 30, 100, 300 MG/KG FOR DURATION OF STUDY (STUDY DURATION: 2 YR), Dose: 0, 100, 300, 900 MG/KG IN DIET FOR 316 D THEN 0, 30, 100, 300 MG/KG FOR DURATION OF STUDY (STUDY DURATION: 2 YR)): inactive; negative; carcinogen call (Species: RAT, Strain/Sex: SPRAGUE-DAWLEY/MALE, Route: ORAL, Dose: 0, 100, 300, 900 MG/KG IN DIET FOR 316 D THEN 0, 30, 100, 300 MG/KG FOR DURATION OF STUDY (STUDY DURATION: 2 YR), Dose: 0, 100, 300, 900 MG/KG IN DIET FOR 316 D THEN 0, 30, 100, 300 MG/KG FOR DURATION OF STUDY (STUDY DURATION: 2 YR)): inactive; negative

**Q.** For `C[C@H]1C[C@]2(C)[C@@H](O)CC[C@H]2[C@@H]2CCc3cc(O)ccc3[C@H]21`, which carcinogen call (Species: HAMSTER, Strain/Sex: SYRIAN/MALE, Route: SUBCUTANEOUS IMPLANT, Dose: 0, 20 MG IN PELLETS IMPLANTED EVERY 2.5 MO FOR 9 MO (STUDY DURATION: 9 MO)) is on record?
**A.** The carcinogen call was “inactive; negative”.

**Q.** With `FC(F)OC(Cl)C(F)(F)F` (stereo not drawn) as the compound, how does the carcinogen call (Species: MOUSE, Strain/Sex: SWISS/FEMALE, Route: INHALATION, Dose: 0, 0.1, 0.4% IN AIR 4 HR/D 5 D/WK FOR 78 WK (STUDY DURATION: 81 WK), Dose: 0, 0.1, 0.4% IN AIR 4 HR/D 5 D/WK FOR 78 WK (STUDY DURATION: 81 WK)) read?
**A.** The carcinogen call was “inactive; negative”.

**Q.** What about the carcinogen call (Species: MOUSE, Strain/Sex: SWISS/MALE, Route: INHALATION, Dose: 0, 0.1, 0.4% IN AIR 4 HR/D 5 D/WK FOR 78 WK (STUDY DURATION: 81 WK), Dose: 0, 0.1, 0.4% IN AIR 4 HR/D 5 D/WK FOR 78 WK (STUDY DURATION: 81 WK)) of the same compound?
**A.** Its carcinogen call is “inactive; negative”.

**Q.** How did the carcinogen call (Species: RAT, Route: INTRAPERITONEAL, Tumor Site: Type of Lesion: INTESTINES, LIVER, INTEGUMENTARY SYSTEM (SKIN), Tumor Site: Type of Lesion: INTESTINES, LIVER, INTEGUMENTARY SYSTEM (SKIN)) turn out when `C/C=C(/C)C(=O)O[C@H]1CCN2CC=C(COC(=O)[C@@](O)([C@H](C)OC)C(C)(C)O)[C@H]12` was run?
**A.** Its carcinogen call is “active; positive”.

**Q.** What about the carcinogen call (Species: RAT, Strain/Sex: F344/FEMALE, Route: ORAL, Dose: 0, 7, 15, 30 PPM IN DIET, Dose: 0, 7, 15, 30 PPM IN DIET, Tumor Site: Type of Lesion: LIVER: HEPATOCELLULAR CARCINOMA OR ADENOMA (NOS), ANGIOSARCOMA, HEMATOPOIETIC SYSTEM (LEUKEMIA), LYMPHATIC SYSTEM: LYMPH, Tumor Site: Type of Lesion: LIVER: HEPATOCELLULAR CARCINOMA OR ADENOMA (NOS), ANGIOSARCOMA, HEMATOPOIETIC SYSTEM (LEUKEMIA), LYMPHATIC SYSTEM: LYMPH) of the same compound?
**A.** The carcinogen call was “active; positive”.

**Q.** What about the carcinogen call (Species: RAT, Strain/Sex: F344/MALE, Route: ORAL, Dose: 0, 7, 15, 30 PPM IN DIET, Dose: 0, 7, 15, 30 PPM IN DIET, Tumor Site: Type of Lesion: LIVER: HEPATOCELLULAR CARCINOMA OR ADENOMA (NOS), ANGIOSARCOMA) of the same compound?
**A.** Its carcinogen call is “active; positive”.

**Q.** How did the carcinogen call (Species: MOUSE, Strain/Sex: B6C3F1/FEMALE, Route: GAVAGE, Dose: 0, 100, 200 MG/KG IN CORN OIL 5 D/WK FOR 103 WK (STUDY DURATION: 2 YR), Dose: 0, 100, 200 MG/KG IN CORN OIL 5 D/WK FOR 103 WK (STUDY DURATION: 2 YR), Tumor Site: Type of Lesion: FORESTOMACH: EPITHELIAL HYPERPLASIA, SQUAMOUS CELL PAPILLOMA) turn out when `C=C(C)CCl` was run?
**A.** Its carcinogen call is “active; positive”.

**Q.** And the carcinogen call (Species: MOUSE, Strain/Sex: B6C3F1/FEMALE, Route: GAVAGE, Dose: 0, 100, 200 MG/KG IN CORN OIL 5 D/WK FOR 103 WK, Dose: 0, 100, 200 MG/KG IN CORN OIL 5 D/WK FOR 103 WK, Tumor Site: Type of Lesion: FORESTOMACH: SQUAMOUS CELL PAPILLOMA, SQUAMOUS CELL PAPILLOMA OR CARCINOMA)?
**A.** Its carcinogen call is “active; positive”.

**Q.** What about the carcinogen call (Species: MOUSE, Strain/Sex: B6C3F1/MALE, Route: GAVAGE, Dose: 0, 100, 200 MG/KG IN CORN OIL 5 D/WK FOR 103 WK (STUDY DURATION: 2 YR), Dose: 0, 100, 200 MG/KG IN CORN OIL 5 D/WK FOR 103 WK (STUDY DURATION: 2 YR), Tumor Site: Type of Lesion: FORESTOMACH: EPITHELIAL HYPERPLASIA, SQUAMOUS CELL PAPILLOMA, SQUAMOUS CELL CARCINOMA) of the same compound?
**A.** The carcinogen call was “active; positive”.

**Q.** What about the carcinogen call (Species: MOUSE, Strain/Sex: B6C3F1/MALE, Route: GAVAGE, Dose: 0, 100, 200 MG/KG IN CORN OIL 5 D/WK FOR 103 WK, Dose: 0, 100, 200 MG/KG IN CORN OIL 5 D/WK FOR 103 WK, Tumor Site: Type of Lesion: FORESTOMACH: SQUAMOUS CELL PAPILLOMA, SQUAMOUS CELL CARCINOMA) of the same compound?
**A.** The carcinogen call was “active; positive”.

**Q.** And the carcinogen call (Species: MOUSE, Strain/Sex: BDF1/FEMALE, Route: INHALATION, Dose: 0, 50, 100, 200 PPM 6 HR/D 5 D/WK FOR 104 WK (STUDY DURATION: 104 WK), Dose: 0, 50, 100, 200 PPM 6 HR/D 5 D/WK FOR 104 WK (STUDY DURATION: 104 WK), Tumor Site: Type of Lesion: HARDERIAN GLAND: ADENOMA)?
**A.** Its carcinogen call is “active; positive”.

**Q.** And the carcinogen call (Species: MOUSE, Strain/Sex: BDF1/MALE, Route: INHALATION, Dose: 0, 50, 100, 200 PPM 6 HR/D 5 D/WK FOR 104 WK (STUDY DURATION: 104 WK), Dose: 0, 50, 100, 200 PPM 6 HR/D 5 D/WK FOR 104 WK (STUDY DURATION: 104 WK))?
**A.** The carcinogen call was “inactive; negative”.

**Q.** And the carcinogen call (Species: RAT, Strain/Sex: F344/FEMALE, Route: GAVAGE, Dose: 0, 75, 150 MG/KG IN CORN OIL 5 D/WK FOR 103 WK (STUDY DURATION: 2 YR), Dose: 0, 75, 150 MG/KG IN CORN OIL 5 D/WK FOR 103 WK (STUDY DURATION: 2 YR), Tumor Site: Type of Lesion: FORESTOMACH: BASAL CELL HYPERPLASIA, SQUAMOUS CELL PAPILLOMA)?
**A.** Its carcinogen call is “active; positive”.

**Q.** And the carcinogen call (Species: RAT, Strain/Sex: F344/FEMALE, Route: GAVAGE, Dose: 0, 75, 150 MG/KG IN CORN OIL 5 D/WK FOR 103 WK, Dose: 0, 75, 150 MG/KG IN CORN OIL 5 D/WK FOR 103 WK, Tumor Site: Type of Lesion: FORESTOMACH: PAPILLOMA)?
**A.** Its carcinogen call is “active; positive”.

**Q.** And the carcinogen call (Species: RAT, Strain/Sex: F344/MALE, Route: GAVAGE, Dose: 0, 75, 150 MG/KG IN CORN OIL 5 D/WK FOR 103 WK (STUDY DURATION: 2 YR), Dose: 0, 75, 150 MG/KG IN CORN OIL 5 D/WK FOR 103 WK (STUDY DURATION: 2 YR), Tumor Site: Type of Lesion: FORESTOMACH: BASAL CELL OR EPITHELIAL HYPERPLASIA, SQUAMOUS CELL PAPILLOMA)?
**A.** The carcinogen call was “active; positive”.

**Q.** What about the carcinogen call (Species: RAT, Strain/Sex: F344/MALE, Route: GAVAGE, Dose: 0, 75, 150 MG/KG IN CORN OIL 5 D/WK FOR 103 WK, Dose: 0, 75, 150 MG/KG IN CORN OIL 5 D/WK FOR 103 WK, Tumor Site: Type of Lesion: FORESTOMACH: PAPILLOMA) of the same compound?
**A.** The carcinogen call was “active; positive”.

— PubChem BioAssay AID1259411 (Chemical Carcinogenesis Research Information System (CCRIS), 2018)
